In patent US5789434A, “Derivatives of substituted 4-biarylbutyric acid as matrix metalloprotease inhibitors” (priority 1995, dated 1998):
pIC50: −log10 of the molar value.

Columns and labels:
Assay type in all cases: biochemical
MMP-3 = target: T1, MMP-3 (Homo sapiens, UniProt P08254); assay: Automated MMP Profiling Assay, MMP-3 fluorogenic; details: for pIC50: 96-well automated, P218
T1 construct: Truncated Prostromelysin-257 was expressed in a soluble form in E.coli; made in house; host or cells: E. coli
T1 sequence (P08254 100-274 limits assumed): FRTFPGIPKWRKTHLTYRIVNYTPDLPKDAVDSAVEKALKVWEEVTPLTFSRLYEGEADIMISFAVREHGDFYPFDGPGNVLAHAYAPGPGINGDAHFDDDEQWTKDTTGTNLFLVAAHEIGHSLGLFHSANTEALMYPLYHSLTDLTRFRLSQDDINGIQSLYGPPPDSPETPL
Excerpt: This assay with each invention compound was run with the three enzymes MMP-3, MMP-9 and MMP-2 in parallel as adapted for a 96-well microtitre plate using a Hamilton A® workstation.

MMP-9 [1] = target: T2, MMP-9 (Homo sapiens, UniProt P14780); assay: Automated MMP Profiling Assay, MMP-9 fluorogenic; details: for pIC50: 96-well automated, P218
T2 construct: from tissue; host or cells: human polymorphonuclear leukocytes (PMN) from whole blood (New York Blood Center), PMA-stimulated supernatant
T2 sequence (P14780 107-707 limits assumed): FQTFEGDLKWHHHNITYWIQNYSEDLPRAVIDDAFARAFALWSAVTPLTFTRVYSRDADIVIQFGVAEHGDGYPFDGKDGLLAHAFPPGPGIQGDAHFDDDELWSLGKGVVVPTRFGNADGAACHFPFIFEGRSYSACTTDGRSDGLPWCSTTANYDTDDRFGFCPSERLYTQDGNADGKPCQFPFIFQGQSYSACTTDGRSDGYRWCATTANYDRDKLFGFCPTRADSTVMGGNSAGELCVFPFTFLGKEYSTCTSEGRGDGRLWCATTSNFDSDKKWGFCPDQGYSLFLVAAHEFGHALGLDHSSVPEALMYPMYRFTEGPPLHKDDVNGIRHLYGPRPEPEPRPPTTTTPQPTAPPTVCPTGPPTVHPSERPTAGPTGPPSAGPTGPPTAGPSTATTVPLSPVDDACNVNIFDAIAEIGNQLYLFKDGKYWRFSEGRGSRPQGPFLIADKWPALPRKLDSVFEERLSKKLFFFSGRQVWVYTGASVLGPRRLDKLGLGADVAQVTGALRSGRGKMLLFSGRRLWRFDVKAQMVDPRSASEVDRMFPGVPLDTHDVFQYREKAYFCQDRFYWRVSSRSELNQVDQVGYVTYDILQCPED
Experimental: Briefly, polymorphonuclear leukocytes (PMN) preparations were isolated as described above from 3 or more units of freshly drawn whole blood obtained from the New York Blood Center (New York, N.Y.). Cells were resuspended in phosphate buffered saline (PBS) containing 100 ng/ml phorbol myristate acetate (PMA) in the presence of 50 mM diisopropylfluorophospate (DFP), 1 μg/ml leupeptin and aprotinin, and 1 mg/ml catalase for 1 hr at 37° C. Supernatants were collected by centrifugation (300×g) and the samples were frozen at -70° C. All chromatographic methods were performed at 4° C. Thawed samples were concentrated 5-fold using an Amicon chamber equipped with a YM-10 membrane. The concentrate was pressure dialyzed against 0.02M Tris-HCl, 0.1M NaCl, 1 mM CaCl2, 1 μM ZnCl2, 0.001% Brij-35, 0.02% sodium azide (NaN3), pH 7.5 and applied to DEAE ion exchange chromatography resin which was previously equilibrated with the same buffer at a flow rate of 0.4 ml/min. The column was extensively washed with the same buffer and gelatinase was eluted as 4 ml fractions from the column with 0.02M Tris-HCl, 0.5M NaCl, 1 mM CaCl2, 1 μM ZnCl2, 0.001% Brij-35, 0.02% NaN3, pH 7.5. Gelatinase containing fractions were observed by gelatin zymography (see below), loaded onto a gelatin agarose affinity resin and washed with the same buffer. Gelatinase activity was eluted at a flow rate of 1 ml/min from the column as 1 ml fractions with 0.02M Tris-HCl, 1M NaCl, 1 mM CaCl2, 1 μM ZnCl2, 0.001% Brij-35, 0.02% NaN3, pH 7.5 containing 10% dimethyl sulfoxide (DMSO). The fractions containing gelatinase activity were pooled and dialyzed against 0.005M Tris-HCl, 5 mM NaCl, 0.5 mM CaCl2, 0.1 μM ZnCl2, 0.001% Brij-35, pH 7.4. The protein content associated with material was determined with a micro-BCA assay (Pierce, Rockford, Ill.), lyophilized and reconstituted to a desired working concentration (100 μg/ml).
This assay was run with a protocol analogous to that reported for MMP-3 inhibition using the synthetic peptide P218 and each of the three enzymes and measuring quenched fluorescence. This assay with each invention compound was run with the three enzymes MMP-3, MMP-9 and MMP-2 in parallel as adapted for a 96-well microtitre plate using a Hamilton A® workstation.

MMP-2 = target: T3, MMP-2 (Homo sapiens, UniProt P08253); assay: Automated MMP Profiling Assay, MMP-2 fluorogenic; details: 96-well automated, P218; read-out: MMP-2 Fluorogenic IC50 (profiling)
T3 sequence (P08253 110-660): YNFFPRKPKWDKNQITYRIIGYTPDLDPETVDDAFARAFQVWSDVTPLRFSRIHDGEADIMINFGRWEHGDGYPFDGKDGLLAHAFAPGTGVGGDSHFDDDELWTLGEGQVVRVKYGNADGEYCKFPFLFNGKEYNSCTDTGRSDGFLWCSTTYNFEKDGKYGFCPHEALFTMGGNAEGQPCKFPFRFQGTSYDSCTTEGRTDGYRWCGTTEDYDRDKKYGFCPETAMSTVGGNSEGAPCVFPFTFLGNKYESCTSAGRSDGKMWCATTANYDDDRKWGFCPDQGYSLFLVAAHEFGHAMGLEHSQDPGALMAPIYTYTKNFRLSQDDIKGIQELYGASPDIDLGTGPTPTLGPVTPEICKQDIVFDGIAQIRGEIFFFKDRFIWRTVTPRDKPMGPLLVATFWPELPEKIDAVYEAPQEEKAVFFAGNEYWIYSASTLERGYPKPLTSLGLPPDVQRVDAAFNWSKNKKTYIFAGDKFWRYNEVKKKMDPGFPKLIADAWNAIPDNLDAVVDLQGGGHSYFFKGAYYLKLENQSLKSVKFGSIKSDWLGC

MMP-9 [2] = target: T2, MMP-9; assay: Thiopeptilide MMP-9 Inhibition Assay; details: pH 6.5; x (n) = average of n determinations; read-out: MMP-9: Thiopep. IC50

Compound	pIC50 (MMP-3)	pIC50 (MMP-9 [1])	pIC50 (MMP-2)	inhibition at 5 µM (MMP-3) [%]	inhibition at 5 µM (MMP-9 [1]) [%]	pIC50 (MMP-9 [2])
O=C(CC(CCN1C(=O)c2ccccc2C1=O)C(=O)O)c1ccc(-c2ccc(Cl)cc2)cc1 (racemic) [Example 267, 4-[4-(4-chlorophenyl)phenyl]-4-oxo-2-(2-phthalimidoethyl)butanoic acid]	7.82	8.52	8.59			
O=C(O)[C@H]1CN(C(=O)OCc2ccccc2)C[C@@H]1C(=O)c1ccc(-c2ccc(Cl)cc2)cc1 (relative stereo) [Example 174, 1,3-Pyrrolidinecarboxylic acid, 4-[(4'-chloro[1,1'-biphenyl]-4-yl)carbonyl]-1,-(phenylmethyl) ester, trans-]	6.84	6.28	7.25			
O=C(O)[C@@H]1CN(Cc2ccccc2)C[C@H]1C(=O)c1ccc(-c2ccc(Cl)cc2)cc1 (relative stereo) [Example 175, 3-Pyrrolidinecarboxylic acid, 4-[(4'-chloro[1,1'-biphenyl]-4-yl)carbonyl]-1-(phenylmethyl)-, trans-]			5.30	28	6	
O=C(O)[C@H]1[C@H](C(=O)c2ccc(-c3ccc(Cl)cc3)cc2)[C@H]2C=C[C@@H]1C2 (relative stereo) [Example 176, Bicyclo[2.2.1]hept-5-ene-2-carboxylic acid, 3-[(4'-chloro[1,1'-biphenyl]-4-yl)carbonyl]-, (2-endo-,3-exo)-]			5.70	26	24	
O=C(O)[C@@H]1[C@@H](C(=O)c2ccc(-c3ccc(Cl)cc3)cc2)[C@H]2C=C[C@@H]1C2 (relative stereo) [Example 177, Bicyclo[2.2.1]hept-5-ene-2-carboxylic acid, 3-[(4'-chloro[1,1'-biphenyl]-4-yl)carbonyl]-, (2-endo-,3-endo)-]			5.36	11	30	
O=C(O)c1ccccc1S[C@H]1CC[C@H](C(=O)c2ccc(-c3ccc(Cl)cc3)cc2)[C@H]1C(=O)O (relative stereo) [Example 301, Benzoic acid, 2-[[2-carboxy-3-[(4'-chloro[1,1'-biphenyl]-4-yl)carbonyl]cyclopentyl]thio]-, [1S-(1α,2α,3β)]-]	7.52	6.54	7.74			
O=C(O)[C@H]1[C@@H](Sc2ccccc2)CC[C@@H]1C(=O)c1ccc(-c2ccc(Cl)cc2)cc1 (relative stereo) [Example 313, Cyclopentanecarboxylic acid, 2-[(4'-chloro[1,1'-biphenyl]-4-yl)carbonyl]-5-(phenylthio)-, (1α,2β,5α)-]	5.48		5.56		20	
CCCCCOc1ccc(-c2ccc(C(=O)[C@H]3CC[C@H](Sc4ccccc4)[C@@H]3C(=O)O)cc2)cc1 (relative stereo) [Example 317, Cyclopentanecarboxylic acid, 2-[[4'-(pentyloxy)[1,1'-biphenyl]-4-yl]carbonyl]-5-(phenylthio)-, (1α,2β,5α)-]	7.12	6.09	7.43			
Nc1cccc2c1C(=O)N(C[C@@H]1CC[C@H](C(=O)c3ccc(-c4ccc(Cl)cc4)cc3)[C@H]1C(=O)O)C2=O (relative stereo) [Example 392, Cyclopentanecarboxylic acid, 2-[(4-amino-1,3-dihydro-1,3-dioxo-2H-isoindol-2-yl)methyl]-5-[(4'-chloro[1,1'-biphenyl]-4-yl)carbonyl]-, (1α,2β,5β)-]	8.60					
O=C(CC(CCN1C(=O)[C@H]2CC=CC[C@H]2C1=O)C(=O)O)c1ccc(-c2ccc(Cl)cc2)cc1 (relative stereo) [Example 413, 2H-Isoindole-2-butanoic acid, α-[2-(4'-chloro[1,1'-biphenyl]-4-yl)-2-oxoethyl]-1,3,3a,4,7,7a-hexahydro-1,3-dioxo-, cis-]	7.41	6.96				
O=C(CC(CSc1ccccc1)C(=O)O)c1ccc(-c2ccc(Cl)cc2)cc1 (stereo not drawn) [Example 196, 4-[4-(4-chlorophenyl)phenyl]-4-oxo-2-(phenylthiomethyl)butanoic acid]		6.02	7.43			6.36
